What was measured:
[1] = biological target: Cannabinoid receptor 1 (Homo sapiens) (UniProt P21554); assay: Displacement of [3H]CP-55940 from human recombinant CB1 receptor expressed in CHO cells at 10 uM after 120 mins by scintillation counting; format: cell-based
[2] = biological target: Muscarinic acetylcholine receptor M2 (Homo sapiens) (UniProt P08172); assay: Displacement of [3H]AF-DX 384 from human recombinant muscarinic M2 receptor expressed in CHO cells at 10 uM after 60 mins by scintillation counting; format: cell-based
[3] = biological target: Muscarinic acetylcholine receptor M5 (Homo sapiens) (UniProt P08912); assay: Displacement of [3H]4-DAMP from human recombinant muscarinic M5 receptor expressed in CHO cells at 10 uM after 60 mins by scintillation counting; format: cell-based
[4] = biological target: Prostaglandin E2 receptor EP2 subtype (Homo sapiens) (UniProt P43116); assay: Displacement of [3H]PGE2 from human recombinant EP2 receptor expressed in HEK293 cells at 10 uM after 120 mins by scintillation counting; format: cell-based
Prostaglandin E2 receptor EP2 subtype (Homo sapiens), sequence (P43116 whole entry): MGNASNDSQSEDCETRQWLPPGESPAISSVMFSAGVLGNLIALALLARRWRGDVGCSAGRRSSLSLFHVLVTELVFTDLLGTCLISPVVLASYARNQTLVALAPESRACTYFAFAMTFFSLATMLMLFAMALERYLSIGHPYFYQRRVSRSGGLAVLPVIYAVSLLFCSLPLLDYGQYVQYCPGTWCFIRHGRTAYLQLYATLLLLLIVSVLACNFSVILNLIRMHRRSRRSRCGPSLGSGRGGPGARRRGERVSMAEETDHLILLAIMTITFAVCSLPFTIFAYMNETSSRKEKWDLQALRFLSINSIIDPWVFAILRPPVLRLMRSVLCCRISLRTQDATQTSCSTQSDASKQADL

[5] = biological target: Prostacyclin receptor (Homo sapiens) (UniProt P43119); assay: Displacement of [3H]iloprost from human recombinant IP receptor expressed in HEK293 cells at 10 uM after 60 mins by scintillation counting; format: cell-based
Prostacyclin receptor (Homo sapiens), sequence (P43119 whole entry): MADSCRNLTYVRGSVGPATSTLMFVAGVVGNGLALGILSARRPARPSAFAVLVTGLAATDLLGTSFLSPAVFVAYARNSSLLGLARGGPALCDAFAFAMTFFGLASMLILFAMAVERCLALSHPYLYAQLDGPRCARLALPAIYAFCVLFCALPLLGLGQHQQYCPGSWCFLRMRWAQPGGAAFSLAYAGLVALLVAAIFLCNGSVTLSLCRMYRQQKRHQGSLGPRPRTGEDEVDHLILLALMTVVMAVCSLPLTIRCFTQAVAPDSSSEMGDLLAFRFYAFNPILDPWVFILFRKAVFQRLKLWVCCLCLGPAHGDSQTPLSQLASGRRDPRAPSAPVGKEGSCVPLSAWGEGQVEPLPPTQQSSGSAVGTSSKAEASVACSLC

[6] = biological target: 5-hydroxytryptamine receptor 1A (Homo sapiens) (UniProt P08908); assay: Displacement of [3H]8-OH-DPAT from human recombinant 5HT1A receptor expressed in HEK293 cells at 10 uM after 60 mins by scintillation counting; format: cell-based
5-hydroxytryptamine receptor 1A (Homo sapiens), sequence (P08908 whole entry): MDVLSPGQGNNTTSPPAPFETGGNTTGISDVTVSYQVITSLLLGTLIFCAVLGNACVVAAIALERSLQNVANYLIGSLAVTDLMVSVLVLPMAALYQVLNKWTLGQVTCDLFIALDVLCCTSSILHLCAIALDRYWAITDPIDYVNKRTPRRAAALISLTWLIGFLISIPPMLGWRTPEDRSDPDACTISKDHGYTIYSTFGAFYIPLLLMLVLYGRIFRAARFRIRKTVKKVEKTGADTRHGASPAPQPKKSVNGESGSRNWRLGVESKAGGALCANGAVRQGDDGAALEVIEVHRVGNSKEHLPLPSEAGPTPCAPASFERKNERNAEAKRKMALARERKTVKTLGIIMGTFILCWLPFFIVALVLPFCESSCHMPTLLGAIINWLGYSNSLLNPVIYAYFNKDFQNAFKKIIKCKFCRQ

[7] = biological target: 5-hydroxytryptamine receptor 2B (Homo sapiens) (UniProt P41595); assay: Displacement of [125I](+/-)DOI from human recombinant 5HT2B receptor expressed in CHO cells at 10 uM after 60 mins by scintillation counting; format: cell-based
5-hydroxytryptamine receptor 2B (Homo sapiens), sequence (P41595 whole entry): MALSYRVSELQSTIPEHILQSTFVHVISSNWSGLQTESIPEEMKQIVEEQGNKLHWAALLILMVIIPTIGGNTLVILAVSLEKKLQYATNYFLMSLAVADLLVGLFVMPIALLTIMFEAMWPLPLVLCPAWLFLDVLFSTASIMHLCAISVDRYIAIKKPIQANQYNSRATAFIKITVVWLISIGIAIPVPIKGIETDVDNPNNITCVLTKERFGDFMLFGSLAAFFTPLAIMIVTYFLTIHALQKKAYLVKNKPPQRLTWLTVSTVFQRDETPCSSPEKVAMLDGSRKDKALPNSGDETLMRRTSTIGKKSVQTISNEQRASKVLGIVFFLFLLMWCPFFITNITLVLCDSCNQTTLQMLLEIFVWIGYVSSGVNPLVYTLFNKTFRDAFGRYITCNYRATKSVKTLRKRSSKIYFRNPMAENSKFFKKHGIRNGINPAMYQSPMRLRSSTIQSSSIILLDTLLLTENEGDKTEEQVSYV

[8] = biological target: 5-hydroxytryptamine receptor 2C (Homo sapiens) (UniProt P28335); assay: Displacement of [3H]mesulergine from human recombinant 5HT2C receptor expressed in HEK293 cells at 10 uM after 120 mins by scintillation counting; format: cell-based
[9] = biological target: 5-hydroxytryptamine receptor 7 (Homo sapiens) (UniProt P34969); assay: Displacement of [3H]LSD from human recombinant 5HT7 receptor expressed in CHO cells at 10 uM after 120 mins by scintillation counting; format: cell-based
5-hydroxytryptamine receptor 7 (Homo sapiens), sequence (P34969 whole entry): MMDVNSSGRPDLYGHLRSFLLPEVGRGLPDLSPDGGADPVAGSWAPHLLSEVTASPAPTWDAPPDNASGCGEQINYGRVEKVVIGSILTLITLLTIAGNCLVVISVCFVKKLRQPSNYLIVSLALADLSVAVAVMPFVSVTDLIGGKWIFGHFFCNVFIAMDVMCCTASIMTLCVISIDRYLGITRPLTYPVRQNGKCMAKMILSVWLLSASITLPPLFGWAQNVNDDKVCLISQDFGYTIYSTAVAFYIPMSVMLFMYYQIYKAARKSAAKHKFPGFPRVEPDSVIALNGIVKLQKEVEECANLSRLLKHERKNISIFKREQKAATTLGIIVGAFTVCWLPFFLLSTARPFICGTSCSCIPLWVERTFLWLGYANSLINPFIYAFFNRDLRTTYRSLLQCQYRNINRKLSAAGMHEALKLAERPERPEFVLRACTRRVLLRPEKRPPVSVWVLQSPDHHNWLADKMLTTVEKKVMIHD

[10] = biological target: Calcitonin gene-related peptide type 1 receptor (Homo sapiens) (UniProt Q16602); assay: Displacement of [125I]hCGRPa from human recombinant CGRP receptor expressed in CHO cells at 10 uM after 90 mins by scintillation counting; format: cell-based
[11] = biological target: C-C chemokine receptor type 1 (Homo sapiens) (UniProt P32246); assay: Displacement of [125I]MIP-1a from human recombinant CCR1 receptor expressed in HEK293 cells at 10 uM after 120 mins by scintillation counting; format: cell-based
C-C chemokine receptor type 1 (Homo sapiens), sequence (P32246 whole entry): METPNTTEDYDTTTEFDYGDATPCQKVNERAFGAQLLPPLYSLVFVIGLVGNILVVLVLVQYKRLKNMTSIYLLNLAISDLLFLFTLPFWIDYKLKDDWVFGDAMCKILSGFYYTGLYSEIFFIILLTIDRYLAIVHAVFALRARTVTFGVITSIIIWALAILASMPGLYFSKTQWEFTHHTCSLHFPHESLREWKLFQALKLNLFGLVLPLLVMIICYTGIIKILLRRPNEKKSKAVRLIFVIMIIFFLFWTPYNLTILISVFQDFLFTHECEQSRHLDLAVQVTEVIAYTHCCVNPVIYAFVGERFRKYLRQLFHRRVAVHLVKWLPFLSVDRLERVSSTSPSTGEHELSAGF

[12] = biological target: C-X-C chemokine receptor type 2 (Homo sapiens) (UniProt P25025); assay: Displacement of [125I]IL-8 from human recombinant CXCR2 receptor expressed in HEK293 cells at 10 uM after 60 mins by scintillation counting; format: cell-based
C-X-C chemokine receptor type 2 (Homo sapiens), sequence (P25025 whole entry): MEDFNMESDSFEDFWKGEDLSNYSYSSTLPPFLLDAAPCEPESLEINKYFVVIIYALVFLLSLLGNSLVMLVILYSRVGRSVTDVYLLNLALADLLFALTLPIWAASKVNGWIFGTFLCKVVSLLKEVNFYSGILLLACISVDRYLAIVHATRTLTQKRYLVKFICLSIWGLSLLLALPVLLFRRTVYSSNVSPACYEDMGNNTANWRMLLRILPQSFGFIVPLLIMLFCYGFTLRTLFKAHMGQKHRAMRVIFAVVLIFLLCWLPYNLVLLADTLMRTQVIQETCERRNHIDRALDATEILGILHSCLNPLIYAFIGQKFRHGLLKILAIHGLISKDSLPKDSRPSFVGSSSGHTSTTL

[13] = biological target: Glucocorticoid receptor (Homo sapiens) (UniProt P04150); assay: Displacement of [3H]dexamethasone from glucocorticoid receptor in human IM9 cells at 10 uM after 6 hrs by scintillation counting; format: cell-based; conditions: IM-9
[14] = species on record: Rattus norvegicus; assay: Displacement of [35S]TBPS from GABA gated chloride channel in rat cerebral cortex at 10 uM after 120 mins by scintillation counting; format: tissue-based
[15] = biological target: Sodium-dependent serotonin transporter (Homo sapiens) (UniProt P31645); assay: Displacement of [3H]imipramine from human recombinant SERT expressed in CHO cells at 10 uM after 60 mins by scintillation counting; format: cell-based
[16] = biological target: T1, P2X purinoceptor 3 (Rattus norvegicus, UniProt P49654); assay: Antagonist activity at rat P2X3 receptor expressed in CHO cells; format: functional, cell-based
T1 sequence (P49654 whole entry): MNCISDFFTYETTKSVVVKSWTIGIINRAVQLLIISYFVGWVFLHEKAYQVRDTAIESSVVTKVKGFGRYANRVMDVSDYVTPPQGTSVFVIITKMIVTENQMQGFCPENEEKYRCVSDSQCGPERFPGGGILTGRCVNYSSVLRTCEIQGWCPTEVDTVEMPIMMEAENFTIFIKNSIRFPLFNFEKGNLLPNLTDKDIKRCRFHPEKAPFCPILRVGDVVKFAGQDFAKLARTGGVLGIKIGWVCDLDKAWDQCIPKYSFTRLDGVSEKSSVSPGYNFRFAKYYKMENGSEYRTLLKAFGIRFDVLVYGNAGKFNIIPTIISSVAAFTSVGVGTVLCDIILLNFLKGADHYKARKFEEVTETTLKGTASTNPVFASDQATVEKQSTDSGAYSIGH

[17] = Inhibition of Cytochrome P450 at <15 uM; format: ADME
[18] = Metabolic stability in human liver microsomes; format: ADME, Microsome; conditions: read-out: Stability
[19] = Oral bioavailability in rat; format: ADME, organism-based; conditions: in vivo
[20] = biological target: P2X purinoceptor 1 (Homo sapiens, UniProt P51575); assay: Antagonist activity at P2X1 receptor; format: functional
[21] = biological target: P2X purinoceptor 5 (Homo sapiens, UniProt Q93086); assay: Antagonist activity at P2X5 receptor; format: functional
P2X purinoceptor 5, sequence (Q93086 whole entry): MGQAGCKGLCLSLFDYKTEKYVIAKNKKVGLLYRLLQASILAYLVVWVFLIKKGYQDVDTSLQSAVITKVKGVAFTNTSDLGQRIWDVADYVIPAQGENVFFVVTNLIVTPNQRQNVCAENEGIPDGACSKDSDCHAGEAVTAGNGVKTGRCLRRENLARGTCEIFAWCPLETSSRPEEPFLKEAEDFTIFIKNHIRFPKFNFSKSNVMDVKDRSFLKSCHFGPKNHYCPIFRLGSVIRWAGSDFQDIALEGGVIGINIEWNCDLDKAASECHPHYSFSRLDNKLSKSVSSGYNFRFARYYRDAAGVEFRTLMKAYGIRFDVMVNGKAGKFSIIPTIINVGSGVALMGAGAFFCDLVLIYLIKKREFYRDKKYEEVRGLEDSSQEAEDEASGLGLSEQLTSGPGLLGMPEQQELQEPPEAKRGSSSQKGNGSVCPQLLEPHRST

[22] = biological target: Gastrin/cholecystokinin type B receptor (Homo sapiens) (UniProt P32239); assay: Displacement of [125I]CCK-8s from human recombinant CCK2 receptor expressed in CHO cells at 10 uM after 60 mins by scintillation counting; format: cell-based
[23] = biological target: Endothelin-1 receptor (Homo sapiens) (UniProt P25101); assay: Displacement of [125I]endothelin-1 from human recombinant ETA receptor expressed in CHO cells at 10 uM after 120 mins by scintillation counting; format: cell-based
Endothelin-1 receptor (Homo sapiens), sequence (P25101 whole entry): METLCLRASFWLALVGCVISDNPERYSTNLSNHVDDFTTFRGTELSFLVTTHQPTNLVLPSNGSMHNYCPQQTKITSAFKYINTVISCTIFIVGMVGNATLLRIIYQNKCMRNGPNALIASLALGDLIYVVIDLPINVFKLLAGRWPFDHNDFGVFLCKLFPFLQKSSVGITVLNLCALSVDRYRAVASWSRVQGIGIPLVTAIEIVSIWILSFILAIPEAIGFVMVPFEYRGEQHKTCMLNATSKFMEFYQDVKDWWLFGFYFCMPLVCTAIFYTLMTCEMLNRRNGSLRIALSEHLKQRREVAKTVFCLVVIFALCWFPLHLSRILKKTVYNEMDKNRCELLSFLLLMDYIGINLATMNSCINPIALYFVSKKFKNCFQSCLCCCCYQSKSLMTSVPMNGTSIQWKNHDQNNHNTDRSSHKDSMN

[24] = biological target: Galanin receptor type 1 (Homo sapiens) (UniProt P47211); assay: Displacement of [125I]galanin from human recombinant GAL1 receptor expressed in HEK293 cells at 10 uM after 60 mins by scintillation counting; format: cell-based
Galanin receptor type 1 (Homo sapiens), sequence (P47211 whole entry): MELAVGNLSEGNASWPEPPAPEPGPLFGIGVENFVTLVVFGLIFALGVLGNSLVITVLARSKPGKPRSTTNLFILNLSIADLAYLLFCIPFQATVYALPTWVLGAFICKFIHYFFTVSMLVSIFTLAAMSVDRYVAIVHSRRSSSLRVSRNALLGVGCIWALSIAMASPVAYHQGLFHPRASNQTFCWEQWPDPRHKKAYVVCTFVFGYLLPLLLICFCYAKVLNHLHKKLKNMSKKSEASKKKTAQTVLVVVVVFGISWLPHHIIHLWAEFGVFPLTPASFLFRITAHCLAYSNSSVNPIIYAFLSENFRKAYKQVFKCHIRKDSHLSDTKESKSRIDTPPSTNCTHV

[25] = biological target: Substance-K receptor (Homo sapiens) (UniProt P21452); assay: Displacement of [125I]NKA from human recombinant NK2 receptor expressed in CHO cells at 10 uM after 60 mins by scintillation counting; format: cell-based
Substance-K receptor (Homo sapiens), sequence (P21452 whole entry): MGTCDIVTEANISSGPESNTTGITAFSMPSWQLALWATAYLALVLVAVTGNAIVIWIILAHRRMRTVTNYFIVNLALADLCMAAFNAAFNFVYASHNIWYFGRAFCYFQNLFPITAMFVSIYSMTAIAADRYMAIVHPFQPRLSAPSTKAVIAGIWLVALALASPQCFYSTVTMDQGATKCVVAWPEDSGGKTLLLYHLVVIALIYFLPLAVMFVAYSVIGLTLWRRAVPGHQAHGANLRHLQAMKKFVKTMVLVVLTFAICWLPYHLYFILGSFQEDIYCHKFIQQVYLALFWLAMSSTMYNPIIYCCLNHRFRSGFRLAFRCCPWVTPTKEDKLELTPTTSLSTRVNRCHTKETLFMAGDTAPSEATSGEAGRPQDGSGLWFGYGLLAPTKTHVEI

[26] = biological target: Neuropeptide Y receptor type 1 (Homo sapiens) (UniProt P25929); assay: Displacement of [125I]peptideYY from neuropeptide Y1 receptor in human SK-N-MC cells at 10 uM after 120 mins by scintillation counting; format: cell-based
[27] = biological target: Kappa-type opioid receptor (Rattus norvegicus) (UniProt P34975); assay: Displacement of [3H]U 69593 from rat recombinant kappa opioid receptor expressed in CHO cells at 10 uM after 60 mins by scintillation counting; format: cell-based

Cannabinoid receptor 1 (Homo sapiens), sequence (P21554 whole entry): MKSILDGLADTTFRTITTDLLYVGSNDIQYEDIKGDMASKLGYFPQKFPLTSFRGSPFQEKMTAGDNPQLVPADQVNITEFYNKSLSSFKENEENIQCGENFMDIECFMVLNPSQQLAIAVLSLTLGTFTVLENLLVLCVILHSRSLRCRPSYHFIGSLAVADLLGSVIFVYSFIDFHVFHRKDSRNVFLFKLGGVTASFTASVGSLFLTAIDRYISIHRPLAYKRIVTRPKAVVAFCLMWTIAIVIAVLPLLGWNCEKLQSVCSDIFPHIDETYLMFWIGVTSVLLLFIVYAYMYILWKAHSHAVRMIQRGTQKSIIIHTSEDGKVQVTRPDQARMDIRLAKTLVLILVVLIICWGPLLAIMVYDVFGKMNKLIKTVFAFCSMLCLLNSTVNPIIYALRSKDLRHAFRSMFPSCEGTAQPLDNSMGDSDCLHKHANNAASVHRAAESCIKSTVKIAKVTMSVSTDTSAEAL

Question: What does the source list for `CC(=O)N1CCN(C[C@@H](C)NC(=O)c2cc3c(-c4ccccc4)nn(C)c3s2)CC1`?
Answer: Activity [1]: > 50%; Activity [2]: > 50%; Activity [3]: > 50%; Activity [4]: > 50%; Activity [5]: > 50%; Activity [6]: > 50%; Activity [7]: > 50%; Activity [8]: > 50%; Activity [9]: > 50%; Activity [10]: > 50%; Activity [11]: > 50%; Activity [12]: > 50%; Activity [13]: > 50%; Activity [14]: > 50%; Activity [15]: > 50%; IC50 [16]: 0.0316 µM; Activity [17]: Not Active; microsomal CLint [18]: 1.7 µL/min/mg; bioavailability [19]: 89%; IC50 [20]: > 10 µM; IC50 [21]: > 10 µM; Activity [22]: > 50%; Activity [23]: > 50%; Activity [24]: > 50%; Activity [25]: > 50%; Activity [26]: > 50%; Activity [27]: > 50%
